Experimental data: ChEMBL document CHEMBL6182867, “Discovery of ultra short β-peptoids with selective activity against drug-resistant Mycobacterium tuberculosis” (Eur J Med Chem, 2025)
Values after ≈ are worked out from the molar mass of the structure shown. Active and inactive are the calls of the source. The calls are words filed in the database; no cut-off is given here.

Columns and labels:
[1] = tested on: Mycobacterium tuberculosis; test: Antitubercular activity against Mycobacterium tuberculosis H37Rv ATCC 27294 by microplate alamar blue assay; assay type: functional
[2] = tested on: Mycobacterium tuberculosis; test: Antitubercular activity against Mycobacterium tuberculosis H37Rv by microplate alamar blue assay; assay type: functional
[3] = tested on: Mycobacteroides abscessus; test: Antibacterial activity against Mycobacterium abscessus ATCC 19977 incubated for 3 days by microplate alamar blue assay; assay type: functional; settings: ATCC 19977, 72 h, time 3 day
Mycobacteroides chelonae [4] = test: Antibacterial activity against Mycobacteroides chelonae ATCC 35752 incubated for 3 days by microplate alamar blue assay; assay type: functional; settings: ATCC 35752, 72 h, time 3 day
Mycobacterium marinum [5] = test: Antibacterial activity against Mycobacterium marinum ATCC 927 incubated for 5 days by microplate alamar blue assay; assay type: functional; settings: ATCC 927, 120 h, time 5 day
Mycobacterium avium [6] = test: Antibacterial activity against Mycobacterium avium ATCC 15769 incubated for 6 days by microplate alamar blue assay; assay type: functional; settings: ATCC 15769, 144 h, time 6 day
Mycobacterium kansasii [7] = test: Antibacterial activity against Mycobacterium kansasii ATCC 12478 incubated for 7 days by microplate alamar blue assay; assay type: functional; settings: ATCC 12478, 168 h, time 7 day
Enterococcus faecium = test: Antibacterial activity against Enterococcus faecium by microplate alamar blue assay; assay type: functional
Staphylococcus aureus = test: Antibacterial activity against Staphylococcus aureus by microplate alamar blue assay; assay type: functional
Klebsiella pneumoniae = test: Antibacterial activity against Klebsiella pneumoniae by microplate alamar blue assay; assay type: functional
Acinetobacter baumannii = test: Antibacterial activity against Acinetobacter baumannii by microplate alamar blue assay; assay type: functional
Pseudomonas aeruginosa = test: Antibacterial activity against Pseudomonas aeruginosa by microplate alamar blue assay; assay type: functional
Klebsiella aerogenes = test: Antibacterial activity against Enterobacter aerogenes by microplate alamar blue assay; assay type: functional
Candida albicans = test: Antifungal activity against Candida albicans by microplate alamar blue assay; assay type: functional
[8] = tested on: Mycobacteroides abscessus; test: Antibacterial activity against Mycobacterium abscessus ATCC 19977 assessed as growth inhibition at 100 ug/ml incubated for 3 days by microplate alamar blue assay relative to control; assay type: functional; settings: ATCC 19977, 72 h, time 3 day, read-out: GI
Mycobacteroides chelonae [9] = test: Antibacterial activity against Mycobacteroides chelonae ATCC 35752 assessed as growth inhibition at 100 ug/ml incubated for 3 days by microplate alamar blue assay relative to control; assay type: functional; settings: ATCC 35752, 72 h, time 3 day, read-out: GI
Mycobacterium marinum [10] = test: Antibacterial activity against Mycobacterium marinum ATCC 927 assessed as growth inhibition at 100 ug/ml incubated for 5 days by microplate alamar blue assay relative to control; assay type: functional; settings: ATCC 927, 120 h, time 5 day, read-out: GI
Mycobacterium avium [11] = test: Antibacterial activity against Mycobacterium avium ATCC 15769 assessed as growth inhibition at 100 ug/ml incubated for 6 days by microplate alamar blue assay relative to control; assay type: functional; settings: ATCC 15769, 144 h, time 6 day, read-out: GI
Mycobacterium kansasii [12] = test: Antibacterial activity against Mycobacterium kansasii ATCC 12478 assessed as growth inhibition at 100 ug/ml incubated for 7 days by microplate alamar blue assay relative to control; assay type: functional; settings: ATCC 12478, 168 h, time 7 day, read-out: GI
[13] = tested on: Mycobacterium tuberculosis; test: Antitubercular activity against Mycobacterium tuberculosis KMA 1354 by microplate alamar blue assay; assay type: functional
[14] = tested on: Mycobacterium tuberculosis; test: Antitubercular activity against Mycobacterium tuberculosis KMA 3899 by microplate alamar blue assay; assay type: functional
[15] = tested on: Mycobacterium tuberculosis; test: Antitubercular activity against Mycobacterium tuberculosis KMA 4244 by microplate alamar blue assay; assay type: functional
[16] = tested on: Mycobacterium tuberculosis; test: Antitubercular activity against Mycobacterium tuberculosis KMA 4439 by microplate alamar blue assay; assay type: functional
[17] = tested on: Mycobacterium tuberculosis; test: Antitubercular activity against Mycobacterium tuberculosis KMA 5282 by microplate alamar blue assay; assay type: functional
[18] = Cytotoxicity against African green monkey Vero cells measured after 3 days by resazurin dye based fluorescence assay; assay type: toxicity, cell-based; settings: African green monkey (Chlorocebus sabaeus)
[19] = tested on: Mycobacterium tuberculosis; test: Bactericidal activity against Mycobacterium tuberculosis H37Rv measured up to 7 days by luminescence assay; assay type: functional; settings: time <= 7 day
[20] = tested on: Mycobacterium tuberculosis; test: Antitubercular activity against Mycobacterium tuberculosis H37Rv assessed as post antibiotic affect up to 100 ug/ml measured daily for up to 14 days by luminescence assay; assay type: functional, organism-based; settings: dose <= 100.0 µg/ml, time <= 14.0 day
Mitochondrial membrane [21] = test: Induction of […] membrane potential loss in Mycobacterium tuberculosis H37Rv at <=MIC measured after 15 mins by DiOC2 dye based fluorescence assay; assay type: cell membranes
Mitochondrial membrane [22] = test: Induction of […] membrane potential loss in Mycobacterium tuberculosis H37Rv at <=MIC measured after 24 hrs by DiOC2 dye based fluorescence assay; assay type: cell membranes
[23] = tested on: Mycobacterium tuberculosis; test: Synergistic antitubercular activity against Mycobacterium tuberculosis H37Rv assessed as bedaquiline MIC=>90 at 0.4 ug/ml by microplate alamar blue assay (reference value: 0.05 uM); assay type: functional; settings: dose 0.4 µg/ml
[24] = tested on: Mycobacterium tuberculosis; test: Synergistic antitubercular activity against Mycobacterium tuberculosis H37Rv assessed as rifampin MIC=>90 at 0.4 ug/ml by microplate alamar blue assay (reference value: 0.06 uM); assay type: functional; settings: dose 0.4 µg/ml
[25] = tested on: Mycobacterium tuberculosis; test: Synergistic antitubercular activity against Mycobacterium tuberculosis H37Rv assessed as isoniazid MIC=>90 at 0.4 ug/ml by microplate alamar blue assay (reference value: 0.12 uM); assay type: functional; settings: dose 0.4 µg/ml
[26] = tested on: Mycobacterium tuberculosis; test: Synergistic antitubercular activity against Mycobacterium tuberculosis H37Rv in presence of bedaquiline by microplate alamar blue assay (reference value: 2.59 uM); assay type: functional
[27] = tested on: Mycobacterium tuberculosis; test: Synergistic antitubercular activity against Mycobacterium tuberculosis H37Rv in presence of rifampin by microplate alamar blue assay (reference value: 2.59 uM); assay type: functional
[28] = tested on: Mycobacterium tuberculosis; test: Synergistic antitubercular activity against Mycobacterium tuberculosis H37Rv in presence of isoniazid by microplate alamar blue assay (reference value: 2.59 uM); assay type: functional
[29] = tested on: Mycobacterium tuberculosis; test: Synergistic antitubercular activity against Mycobacterium tuberculosis H37Rv assessed as bedaquiline MIC=>90 at 0.8 ug/ml by microplate alamar blue assay (reference value: 0.05 uM); assay type: functional; settings: dose 0.8 µg/ml
[30] = tested on: Mycobacterium tuberculosis; test: Synergistic antitubercular activity against Mycobacterium tuberculosis H37Rv assessed as rifampin MIC=>90 at 0.8 ug/ml by microplate alamar blue assay (reference value: 0.06 uM); assay type: functional; settings: dose 0.8 µg/ml
[31] = tested on: Mycobacterium tuberculosis; test: Synergistic antitubercular activity against Mycobacterium tuberculosis H37Rv assessed as isoniazid MIC=>90 at 0.8 ug/ml by microplate alamar blue assay (reference value: 0.12 uM); assay type: functional; settings: dose 0.8 µg/ml
[32] = tested on: Mycobacterium tuberculosis; test: Synergistic antitubercular activity against Mycobacterium tuberculosis H37Rv in presence of bedaquiline by microplate alamar blue assay (reference value: 3.08 uM); assay type: functional
[33] = tested on: Mycobacterium tuberculosis; test: Synergistic antitubercular activity against Mycobacterium tuberculosis H37Rv in presence of rifampin by microplate alamar blue assay (reference value: 3.08 uM); assay type: functional
[34] = tested on: Mycobacterium tuberculosis; test: Synergistic antitubercular activity against Mycobacterium tuberculosis H37Rv in presence of isoniazid by microplate alamar blue assay (reference value: 3.08 uM); assay type: functional

CC(C)N(C(=O)CCNCCCC1CCCC1)C(C)C
MIC90 [1]: 1.48 µg/mL (≈ 5.24 µM) | MIC90 [2]: 1.48 µg/mL (≈ 5.24 µM) | MIC90 [3]: > 100 µg/mL | MIC90 (Mycobacteroides chelonae [4]): > 100 µg/mL | MIC90 (Mycobacterium marinum [5]): > 100 µg/mL | MIC90 (Mycobacterium avium [6]): > 100 µg/mL | MIC90 (Mycobacterium kansasii [7]): > 100 µg/mL | MIC90 (Enterococcus faecium): 49.2 µg/mL (≈ 174 µM) | MIC90 (Staphylococcus aureus): 48.1 µg/mL (≈ 170 µM) | MIC90 (Klebsiella pneumoniae): > 100 µg/mL | MIC90 (Acinetobacter baumannii): > 100 µg/mL | MIC90 (Pseudomonas aeruginosa): > 100 µg/mL | MIC90 (Klebsiella aerogenes): > 100 µg/mL | MIC90 (Candida albicans): 49.6 µg/mL (≈ 176 µM) | inhibition of growth at 100 µg/mL [8]: 0% | inhibition of growth at 100 µg/mL (Mycobacteroides chelonae [9]): 18% | inhibition of growth at 100 µg/mL (Mycobacterium marinum [10]): 26% | inhibition of growth at 100 µg/mL (Mycobacterium avium [11]): 0% | inhibition of growth at 100 µg/mL (Mycobacterium kansasii [12]): 0% | MIC90 [13]: 1.8 µg/mL (≈ 6.37 µM) | MIC90 [14]: 1.54 µg/mL (≈ 5.45 µM) | MIC90 [15]: 2.92 µg/mL (≈ 10.3 µM) | MIC90 [16]: 3.11 µg/mL (≈ 11 µM) | MIC90 [17]: 4.37 µg/mL (≈ 15.5 µM) | IC50 at 3 days [18]: 69.7 µM | MBC99 [19]: 3020 µg/mL (≈ 10700 µM) | Activity [20]: inactive | Activity (Mitochondrial membrane [21]): inactive | Activity (Mitochondrial membrane [22]): inactive | MIC [23]: 0.04 µM | MIC [24]: 0.03 µM | MIC [25]: 0.12 µM | MIC [26]: 2.33 µg/mL | MIC [27]: 1.38 µg/mL | MIC [28]: 2.45 µg/mL

CC(C)N(C(=O)CCNCCC(c1ccccc1)c1ccccc1)C(C)C
MIC90 [1]: 3.11 µg/mL (≈ 8.48 µM) | MIC90 [2]: 2.97 µg/mL (≈ 8.1 µM) | MIC90 [3]: > 100 µg/mL | MIC90 (Mycobacteroides chelonae [4]): > 100 µg/mL | MIC90 (Mycobacterium marinum [5]): > 100 µg/mL | MIC90 (Mycobacterium avium [6]): > 100 µg/mL | MIC90 (Mycobacterium kansasii [7]): > 100 µg/mL | MIC90 (Enterococcus faecium): 95.8 µg/mL (≈ 261 µM) | MIC90 (Staphylococcus aureus): 96.5 µg/mL (≈ 263 µM) | MIC90 (Klebsiella pneumoniae): > 100 µg/mL | MIC90 (Acinetobacter baumannii): > 100 µg/mL | MIC90 (Pseudomonas aeruginosa): > 100 µg/mL | MIC90 (Klebsiella aerogenes): > 100 µg/mL | MIC90 (Candida albicans): > 100 µg/mL | inhibition of growth at 100 µg/mL [8]: 0% | inhibition of growth at 100 µg/mL (Mycobacteroides chelonae [9]): 74% | inhibition of growth at 100 µg/mL (Mycobacterium marinum [10]): 90% | inhibition of growth at 100 µg/mL (Mycobacterium avium [11]): 0% | inhibition of growth at 100 µg/mL (Mycobacterium kansasii [12]): 0% | MIC90 [13]: 4.58 µg/mL (≈ 12.5 µM) | MIC90 [14]: 4.68 µg/mL (≈ 12.8 µM) | MIC90 [15]: 6.11 µg/mL (≈ 16.7 µM) | MIC90 [16]: 8.79 µg/mL (≈ 24 µM) | MIC90 [17]: 8.73 µg/mL (≈ 23.8 µM) | IC50 at 3 days [18]: 45.9 µM | MBC99 [19]: 5480 µg/mL (≈ 15000 µM) | Activity [20]: inactive | Activity (Mitochondrial membrane [21]): inactive | Activity (Mitochondrial membrane [22]): inactive | MIC [29]: 0.03 µM | MIC [30]: 0.04 µM | MIC [31]: 0.12 µM | MIC [32]: 2.99 µg/mL | MIC [33]: 2.01 µg/mL | MIC [34]: 3.06 µg/mL
